Data set [1] concerns stomach (gastric peristalsis). Description: Testing of the gastric peristalsis (measurements of the gastric pressure). It counts as in vivo, rats. The note with it: for inhibition in vivo at 20 mg/kg: Rattus norvegicus, ip, read-out: Frequency decrease in %.
Source text: To determine the functioning of the gastric peristalsis, rats weighing about 200 g. are narcotized by means of ketamine hydrochloride and xylazine. A catheter is introduced into the Vena jugularis of the narcotized rats and a tracheal catheter into their trachea. A stomach probe is inserted into their stomach and tied thereto. Said probe is connected via a three-way cock with a Statham pressure imparting device (P 23 DB). The stomach is sealed off by a ligature at the pylorus and at the cardia. The stomach is filled with 3 ml. of an 0.9% aqueous sodium chloride solution. The pressure waves produced by the stomach are continuously registered by a suitable recording device such as by a Watanabe Multicorder (MC 641). In order to determine the effect of the compounds to be tested, they are dissolved in physiological sodium chloride solution or are suspended in Tylose MH 50 solution. Said solutions or suspensions are administered intraperitoneally to the rats in a dosis of 20 mg./kg. The amplitudes and frequencies of the pressure wave-like movements of the stomach as they occur before and after administration of the compound to be tested, are compared.
The nature of data set [2]: Determination of the acute toxicity (seven-day, single intraperitoneal dose). The note with it: in vivo, ip, white NMRI mouse, fasting, single i.p. dose, probit analysis. Here is the method: The acute seven-day toxicity is determined by intraperitoneal administration of a single dose of the respective compound to a fasting white NMRI mouse. The LD50 -values are calculated via EDV by a probit analysis as described in the book "Grundbegriffe der Biometrie" (Basic biometrical definitions) by L. Cavalli-Sforza, page 153 et seq., published by Gustav Fischer Verlag, Stuttgart, 1964.

[3] abbreviates: gastric pressure waves, narcotized rats, 20 mg./kg. intraperitoneally, before vs after administration.

Read-outs that look alike come from different tables or passages of the source.

For `COC(=O)c1c(OC)c2ccccc2n1CCN(C)C.Cl` [(A), 1-(β-Dimethylaminoethyl)-2-methoxy carbonyl-3-methoxy-indole hydrochloride], in data set [1] (setting [3]), the inhibition in vivo at 20 mg/kg stood at 3.3% and the “Factor of the increase in amplitude” value was found to be 6.2. For the same compound, the median lethal dose (LD50) at 168 h in data set [2] was 171 mg/kg.

With `COC(=O)c1c(OC)c2ccc(C)cc2n1CCN(C)C.Cl` [(B), 1-(β-dimethylaminoethyl)-2-methoxy carbonyl-3-methoxy-6-methyl indole hydrochloride], in data set [1] (setting [3]), the inhibition in vivo at 20 mg/kg came to 7% and the “Factor of the increase in amplitude” value came to 22.7. This compound also gave a median lethal dose (LD50) at 168 h in data set [2] of 68 mg/kg.

For `CCOc1c(C(=O)OC)n(CCN(C)C)c2ccc(Cl)cc12.Cl` [(C), 1-(β-dimethylaminoethyl)-2-methoxy carbonyl-3-ethoxy-5-chloro indole hydrochloride], in data set [1] (setting [3]), the inhibition in vivo at 20 mg/kg was 9% and the “Factor of the increase in amplitude” value came out at 1.4. Moreover, the LD50 at 168 h in data set [2] was found to be 141 mg/kg.

For `COC(=O)c1c(OC(C)C)c2cc(C)ccc2n1CCN(C)C.Cl` [(D), 1-(β-dimethylaminoethyl)-2-methoxy carbonyl-3-isopropyloxy-5-methyl indole hydrochloride], in data set [1] (setting [3]), the inhibition in vivo at 20 mg/kg was 19% and the “Factor of the increase in amplitude” value worked out at 6.9. Besides, in data set [2], the LD50 at 168 h was 137 mg/kg.

For the compound `COC(=O)c1c(OCc2ccccc2)c2cc(Cl)ccc2n1CCN(C)C.Cc1ccc(S(=O)(=O)O)cc1` [(E), 1-(β-dimethylaminoethyl)-2-methoxy carbonyl-3-benzyloxy-5-chloroindole toluene-4-sulfonate], the inhibition in vivo at 20 mg/kg in data set [1] was -2%. In addition, in data set [1] (setting [3]), the “Factor of the increase in amplitude” value was determined as 0.6. This compound showed an LD50 at 168 h in data set [2] of 283 mg/kg.

For `CCOC(=O)c1c(OCC)c2ccc(Cl)cc2n1CCN(C)C.Cc1ccc(S(=O)(=O)O)cc1` [(F), 1-(β-dimethylaminoethyl)-2-ethoxy carbonyl-3-ethoxy-6-chloro indole toluene-4-sulfonate], the inhibition in vivo at 20 mg/kg in data set [1] was determined as 5%. For the same compound, the “Factor of the increase in amplitude” value in data set [1] (setting [3]) came out at 10.9. The LD50 at 168 h in data set [2] is 226 mg/kg.

For the compound `COC(=O)c1c(OC)c2ccccc2n1CCCNC(C)C.Cl` [(G), 1-(γ-isopropylaminopropyl)-2-methoxy carbonyl-3-methoxy indole hydrochloride], in data set [1] (setting [3]), the inhibition in vivo at 20 mg/kg was determined as 29% and the “Factor of the increase in amplitude” value is recorded as 8.3. Also, the LD50 at 168 h in data set [2] was 91 mg/kg.

Take `COC(=O)c1c(OC)c2ccccc2n1CCCCN(C)C.Cc1ccc(S(=O)(=O)O)cc1` [(H), 1-(δ-dimethylaminobutyl)-2-methoxy carbonyl-3-methoxy indole toluene-4-sulfonate]: the inhibition in vivo at 20 mg/kg in data set [1] stood at 11%. In addition, in data set [1] (setting [3]), the “Factor of the increase in amplitude” value was found to be 3.5. This compound showed an LD50 at 168 h in data set [2] of 164 mg/kg.

As for `COC(=O)c1c(OC)c2ccccc2n1CCCN1CCCCC1` [(I), 1-(γ-N-piperidinopropyl)-2-methoxy carbonyl-3-methoxy indole maleinate], in data set [1] (setting [3]), the inhibition in vivo at 20 mg/kg turned out to be 15% and the “Factor of the increase in amplitude” value came to 8.6. Moreover, in data set [2], the 50% lethal dose (LD50) at 168 h came out at 141 mg/kg.

As for `COc1c(C(=O)O)n(CCN(C)C)c2ccccc12` [(K), 1-(β-dimethylaminoethyl)-2-hydroxy carbonyl-3-methoxy indole], in data set [1] (setting [3]), the inhibition in vivo at 20 mg/kg worked out at 21% and the “Factor of the increase in amplitude” value was 3.6. This compound displayed an LD50 at 168 h in data set [2] of 967 mg/kg.

For the compound `COc1c(C(N)=O)n(CCN(C)C)c2ccccc12` [(L), 1-(β-dimethylaminoethyl)-2-amino carbonyl-3-methoxy indole], in data set [1] (setting [3]), the inhibition in vivo at 20 mg/kg was found to be 28% and the “Factor of the increase in amplitude” value stood at 13.9. Moreover, the LD50 at 168 h in data set [2] was 68 mg/kg.

With `CNC(=O)c1c(OC)c2ccccc2n1CCN(C)C` [(M), 1-(β-dimethylaminoethyl)-2-methylamino carbonyl-3-methoxy indole], in data set [1] (setting [3]), the inhibition in vivo at 20 mg/kg was 13% and the “Factor of the increase in amplitude” value is 21.4. For the same compound, the LD50 at 168 h in data set [2] is 68 mg/kg.

In general, LD50 refers to the dose at which mortality reaches 50%.

For the origin of these results see patent US4374846A, “N-Amino alkyl indole compounds compositions containing same, and a method of using same in therapy of disorders of gastrointestinal motility” (Kali-Chemie Pharma GmbH, priority 1979, dated 1983).
